This experiment deals with T1, active p38 alpha enzyme (Upstate Biotechnology) (Homo sapiens, UniProt Q16539).
T1 construct: purchased Upstate Biotechnology
In words: p38α biochemical assay (ATP turnover, luminescent detection, Cambrex PKlight). The settings on record: p38α kinase; Table 1 Biological Activity. A digest of the protocol: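 p38α + MapkapK2 (whole protein substrate) + 1.4 uM ATP final; Tris/MOPS buffer with MgCl2, CaCl2, EGTA, EDTA, glycerol, β-ME, BSA; 2 h at 30C; luminescent detection of remaining ATP.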

SMILES strings stand for the structures.

T1 sequence (Q16539 whole entry): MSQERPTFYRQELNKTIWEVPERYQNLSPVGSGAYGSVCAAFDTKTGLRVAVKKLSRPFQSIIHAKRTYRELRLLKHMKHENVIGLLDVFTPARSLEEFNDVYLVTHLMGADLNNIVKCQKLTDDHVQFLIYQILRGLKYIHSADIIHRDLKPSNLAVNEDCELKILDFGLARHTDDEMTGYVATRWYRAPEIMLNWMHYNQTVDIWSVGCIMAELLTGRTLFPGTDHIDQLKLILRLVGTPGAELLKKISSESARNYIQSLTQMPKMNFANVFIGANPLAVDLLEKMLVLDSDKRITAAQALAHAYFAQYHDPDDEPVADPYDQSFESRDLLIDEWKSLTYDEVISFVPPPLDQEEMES

A word on the IC50: it is the concentration that gives 50% inhibition. Lower therefore signals higher potency. Turning to `O=C(NCCc1ccccc1)c1csc(-c2c(-c3ccc(F)cc3)n[nH]c2C2CCNCC2)n1` [Example 2076], the IC50 is > 1000 nM.
Consider `Cc1ccccc1CNC(=O)c1csc(-c2c(-c3ccc(F)cc3)n[nH]c2C2CCNCC2)n1` [Example 2077], for which the concentration for half-maximal inhibition (IC50) was > 1000 nM.
The result for `Cc1ccc(CNC(=O)c2csc(-c3c(-c4ccc(F)cc4)n[nH]c3C3CCNCC3)n2)cc1` [Example 2078] reads > 1000 nM; that for `Cc1cnc(CNC(=O)c2csc(-c3c(-c4ccc(F)cc4)n[nH]c3C3CCNCC3)n2)cn1` [Example 2079], > 1000 nM.
The result for `O=C(NCc1cccc(F)c1)c1csc(-c2c(-c3ccc(F)cc3)n[nH]c2C2CCNCC2)n1` [Example 2080] reads > 1000 nM; that for `O=C(NCc1ccc(F)cc1)c1csc(-c2c(-c3ccc(F)cc3)n[nH]c2C2CCNCC2)n1` [Example 2081], > 1000 nM; that for `O=C(NCc1ccccc1F)c1csc(-c2c(-c3ccc(F)cc3)n[nH]c2C2CCNCC2)n1` [Example 2082], ≤ 1000 nM.
The result for `O=C(NCCCn1ccnc1)c1csc(-c2c(-c3ccc(F)cc3)n[nH]c2C2CCNCC2)n1` [Example 2083] reads > 1000 nM; that for `CN1CCCC1CCNC(=O)c1csc(-c2c(-c3ccc(F)cc3)n[nH]c2C2CCNCC2)n1` (stereo not drawn) [Example 2084], > 1000 nM.
Turning to `O=C(NCCN1CCCCC1)c1csc(-c2c(-c3ccc(F)cc3)n[nH]c2C2CCNCC2)n1` [Example 2085], the half-inhibitory concentration (IC50) was > 1000 nM.
The result for `CC(C)CCCC(C)NC(=O)c1csc(-c2c(-c3ccc(F)cc3)n[nH]c2C2CCNCC2)n1` (stereo not drawn) [Example 2086] reads > 1000 nM; that for `O=C(NCCN1CCOCC1)c1csc(-c2c(-c3ccc(F)cc3)n[nH]c2C2CCNCC2)n1` [Example 2087], > 1000 nM; that for `CCOC(=O)CC(C)NC(=O)c1csc(-c2c(-c3ccc(F)cc3)n[nH]c2C2CCNCC2)n1` (stereo not drawn) [Example 2088], > 1000 nM.
The result for `O=C(NC1CCc2ccccc21)c1csc(-c2c(-c3ccc(F)cc3)n[nH]c2C2CCNCC2)n1` (stereo not drawn) [Example 2089] reads > 1000 nM; that for `Cc1ccc(CCNC(=O)c2csc(-c3c(-c4ccc(F)cc4)n[nH]c3C3CCNCC3)n2)cc1` [Example 2090], > 1000 nM; that for `Cc1ccc(C)c(CNC(=O)c2csc(-c3c(-c4ccc(F)cc4)n[nH]c3C3CCNCC3)n2)c1` [Example 2091], > 1000 nM.
On to `Cc1ccc([C@H](C)NC(=O)c2csc(-c3c(-c4ccc(F)cc4)n[nH]c3C3CCNCC3)n2)cc1` [Example 2092], for which the half-maximal inhibitory concentration (IC50) is > 1000 nM.
The result for `Cc1ccc([C@@H](C)NC(=O)c2csc(-c3c(-c4ccc(F)cc4)n[nH]c3C3CCNCC3)n2)cc1` [Example 2093] reads > 1000 nM; that for `CC(CNC(=O)c1csc(-c2c(-c3ccc(F)cc3)n[nH]c2C2CCNCC2)n1)c1ccccc1` (stereo not drawn) [Example 2094], > 1000 nM.
For `CC(CNC(=O)c1csc(-c2c(-c3ccc(F)cc3)n[nH]c2C2CCNCC2)n1)c1ccccc1` (stereo not drawn) [Example 2095], the IC50 is > 1000 nM.
The result for `O=C(NCCCc1ccccc1)c1csc(-c2c(-c3ccc(F)cc3)n[nH]c2C2CCNCC2)n1` [Example 2096] reads > 1000 nM; that for `Cc1ccc(CNC(=O)c2csc(-c3c(-c4ccc(F)cc4)n[nH]c3C3CCNCC3)n2)cc1C` [Example 2097], > 1000 nM; that for `CC(Cc1ccncc1)NC(=O)c1csc(-c2c(-c3ccc(F)cc3)n[nH]c2C2CCNCC2)n1` (stereo not drawn) [Example 2098], > 1000 nM.
The result for `O=C(NCCc1ccc(O)cc1)c1csc(-c2c(-c3ccc(F)cc3)n[nH]c2C2CCNCC2)n1` [Example 2099] reads > 1000 nM; that for `O=C(NCCOc1ccccc1)c1csc(-c2c(-c3ccc(F)cc3)n[nH]c2C2CCNCC2)n1` [Example 2100], > 1000 nM.
The result for `COc1ccccc1CNC(=O)c1csc(-c2c(-c3ccc(F)cc3)n[nH]c2C2CCNCC2)n1` [Example 2101] reads > 1000 nM; that for `COc1ccc(CNC(=O)c2csc(-c3c(-c4ccc(F)cc4)n[nH]c3C3CCNCC3)n2)cc1` [Example 2102], ≤ 1000 nM.
